This is an account of results in PMC11546719, “Immune Modulatory Profile of the Pateamines PatA and Des-Methyl Des-Amino PatA” (International Journal of Molecular Sciences, 2024).

Data set [1] concerns M1 MdMs. Description: Polarization of MdMs to M1 MdMs (zombie staining, flow cytometry, ELISA/CBA). The format is cell-based, human. Particulars: for Surface marker expression (CD86, CD80, TREM2, HLA-DR, CD206, CD14, CD163) / Apoptosis (zombie staining) / Inflammatory environment: release of cytokines (IL-6, IL-8, CCL2, CCL17, CL18, IFN-γ) and PGE2: M1 MdMs; for Surface marker expression (CD86, CD80, TREM2, HLA-DR, CD206, CD14, CD163) / Apoptosis (zombie staining): 48 h; for Surface marker expression (CD86, CD80, TREM2, HLA-DR, CD206, CD14, CD163): flow cytometry; for Apoptosis (zombie staining): IFN-γ polarization, 0.5-5 nM; for Inflammatory environment: release of cytokines (IL-6, IL-8, CCL2, CCL17, CL18, IFN-γ) and PGE2: supernatant, ELISA or CBA; for Effect on the release of inflammatory markers, M1 MdM: summary table. The protocol:
The differentiation of human monocytes to macrophages (MdMs) was performed as previously described. Briefly, 0.5 × 10^6 CD14^+ cells/well were pretreated with different concentrations of PatA and DMDA or vehicle (DMSO) for 30 min. After pre-incubation, differentiation was initiated by the addition of 10 ng/mL GM-CSF for M1 MdMs or 50 ng/mL M-CSF for M2 MdMs and incubated for 7 days.
The polarization of MdMs to M1 or M2 MdMs was performed as previously described. M1 and M2 MdM polarization was conducted in separate experiments. Briefly, M1 MdMs were polarized in presence of PatA (0.5, 2.5, 5 nM), DMDA (0.5, 2.5, 5 nM) or vehicle (DMSO) with 20 ng/mL human IFN-γ for 48 h. M2 MdMs were polarized in presence of PatA (0.5, 2.5, 5 nM), DMDA (0.5, 2.5, 5 nM) or vehicle (DMSO) with 10 ng/mL human IL-4 for 24 h.
(§1) Surface marker analysis was performed as described previously. Briefly, 1.5–2 × 10^5 cells of each sample were blocked with human FcR Blocking Reagent (15 min, 4 °C). A Zombie Aqua™ Fixable Viability Kit (1:500 dilution, BioLegend, San Diego, CA, USA) was used according to the manufactory protocol to discriminate living and dead cells. Afterwards, samples were stained with a mixture of different surface marker antibodies (15 min, 4 °C) and measured with MACSQuant® Analyzer 10 flow cytometer. For M1-/M2-MdMs anti-CD86, anti-CD14, anti-HLA-DR, anti-CD206, anti-CD80, anti-TREM2 and anti-CD163 were used. For T cells, anti-CD69, anti-CD54, anti-CD49a, anti-CD18, anti-CD134, anti-CD154, anti-CD3 and anti-CD25 were analyzed. For B cells, anti-CD27, anti-CD19 and anti-CD38 were applied. For T cell and B cell proliferation assay, freshly isolated T and B cells were stained with CTV and detected using flow cytometry. Naïve B cells were characterized as CD19^+CD27^lowCD38^med, memory B cells as CD19^+CD27^med CD38^low and plasma cells as CD27^+CD38^+ cells. M1 MdMs and M2 MdMs cell population was gated using FSC/SSC channel. T cells were gated as CD3^+CD25^+ positive cells. The geometric mean of the fluorescent intensity was calculated using FlowJo software v10 (Treestar, Ashland, […], USA). Fold induction of surface marker expression was calculated using the DMSO-treated cells as the control.
(§2) For determination of cytokine concentrations in the supernatant of humane immune cells, cytometric bead array (BD Biosciences, Heidelberg, Germany) for IL-10, IL-17, IL-8, IL-6, IFN-γ and CCL2 was used. For the detection of CCL18, CCL17, IgG, IgA and PGE2, an ELISA was performed. The cytometric bead arrays and the ELISAs were performed according to the protocol of the supplier.

The next data set concerns Human primary B cells. Description: B cell activation with IL-21, sCD40L, CpG and anti-IgM. The format is cell-based. Particulars: for B cell activation (formation of plasma cells, proliferation, release of IgGs) / Cell viability (zombie staining): activated B cells, 5 days; for Effect on the release of inflammatory markers, B Cells: summary table. As to the method:
B cells were activated as described by Khoenkhoen et al.. […].
as §1, with “[…].” for “A Zombie Aqua™ Fixable Viability Kit (1:500 dilution, BioLegend, San Diego, CA, USA) was used according to the manufactory protocol to discriminate living and dead cells.”
as §2

Data set [2] deals with M1 MdMs. Put plainly: Energy metabolism (Seahorse OCR/ECAR) in M1 MdMs. Particulars: 48 h, 0.5-5 nM. The class given is cell-based, human. The protocol:
The determination of the energy metabolism was performed as described previously. Briefly, for the analysis of the extracellular acidification rate (ECAR) and the oxygen consumption rate (OCR) for human B cells, Tcells, M1 MdMs and M2 MdMs, the Seahorse XFe96 FluxPak (Agilent, Waldbronn, Germany) was used as recommended by the manufacturer. MdMs were polarized to M1 or M2 MdMs in the presence of PatA (0.5, 2.5, 5 nM), DMDA (0.5, 2.5, 5 nM) or vehicle (DMSO) for 48 h or 24 h, respectively. T cells were activated in the presence of PatA (0.25, 0.5 nM), DMDA (0.25, 0.5 nM), silvestrol or DMSO. B cells were activated in the presence of PatA (0.25, 0.5 nM), DMDA (0.25, 0.5 nM), silvestrol (5 nM) or rapamycin (10 ng/mL positive control). Cells were washed with Seahorse XF RPMI medium pH 7.4 (Agilent, Waldbronn, Germany) and OCR and ECAR were measured as octuplicates for a period of 160 min using the Seahorse XFe96 Analyzer (Agilent, Waldbronn, Germany) and analyzed by Wave Software 2.6.3.8 (Agilent, Waldbronn, Germany). The relative values were calculated by relating the OCR or ECAR values obtained after 50 min to the values of the vehicle control (not stimulated).

Data set [3] in a line: Transport assay, porous membrane without cell barrier. The conditions noted are these: 100 nM; for Transport rate without a cell barrier: apical to basolateral. The class given is in vitro ADME.

Regarding `CC(/C=C/C(C)=C/[C@@H]1Cc2nc(cs2)CCCCC(=O)O[C@@H](C)C/C(C)=C/C=C\C(=O)O1)=C\CN(C)C` [DMDA, des-methyl des-amino pateamine A], in the data set with M1 MdMs [1], the “Surface marker expression (CD86, CD80, TREM2, HLA-DR, CD206, CD14, CD163)” value is listed as “only reduced CD14 expression”; the “Apoptosis (zombie staining)” value is given as “Neither PatA nor DMDA induced apoptosis”; the “Inflammatory environment: release of cytokines (IL-6, IL-8, CCL2, CCL17, CL18, IFN-γ) and PGE2” value is recorded as “did not affect the inflammatory environment”; the “Effect on the release of inflammatory markers, M1 MdM” value is on record as “No effect”. In the data set with Human primary B cells, the “B cell activation (formation of plasma cells, proliferation, release of IgGs)” value is “did not prevent B cell activation”; the “Cell viability (zombie staining)” value is on record as “did not reduce cell viability”; the “Effect on the release of inflammatory markers, B Cells” value was “No effect”. Moreover, the “Energy metabolism: glycolysis (ECAR) and oxidative phosphorylation (OCR)” value with M1 MdMs [2] is listed as “had no effect on energy consumption”. In data set [3] (4 h), the “Transport rate without a cell barrier” value is reported as “about 28%”. The “Transport rate without a cell barrier” value in data set [3] (24 h) is recorded as about 41%.
As for `CC(/C=C/C(C)=C/[C@@H]1Cc2nc(cs2)[C@@H](C)C[C@@H](N)CC(=O)O[C@@H](C)C/C(C)=C/C=C\C(=O)O1)=C\CN(C)C` [PatA, pateamine A], in the data set with M1 MdMs [1], the “Surface marker expression (CD86, CD80, TREM2, HLA-DR, CD206, CD14, CD163)” value was “no significant effect on surface marker expression”; the “Apoptosis (zombie staining)” value is reported as “Neither PatA nor DMDA induced apoptosis”; the “Inflammatory environment: release of cytokines (IL-6, IL-8, CCL2, CCL17, CL18, IFN-γ) and PGE2” value is “did not affect the inflammatory environment”; the “Effect on the release of inflammatory markers, M1 MdM” value is listed as “No effect”. Moreover, in the data set with Human primary B cells, the “Cell viability (zombie staining)” value is “did not reduce cell viability” and the “Effect on the release of inflammatory markers, B Cells” value is “IgA↓, IgG↓”. For the same compound, in the data set on Human primary B cells (0.5 nM), the “B cell activation (formation of plasma cells, proliferation, release of IgGs)” value is recorded as “showed similar effects to those of rapamycin”. In addition, in the data set with M1 MdMs [2], the “Energy metabolism: glycolysis (ECAR) and oxidative phosphorylation (OCR)” value is “reduced glycolysis and oxidative phosphorylation”. Also, in data set [3] (4 h), the “Transport rate without a cell barrier” value was “about 28%”. In addition, the “Stability in the media under transport assay conditions” value in data set [3] (inferred from transport without cell barrier) was “probably unstable in the media”.
